Results from patent US9156796B2, “Benzoimidazole-carboxylic acid amide derivatives as APJ receptor modulators” (SANOFI, priority 2013, dated 2015).

Biological target: T1, human apelin receptor (Homo sapiens, UniProt P35414)
T1 construct: expressed in transfected cells
T1 sequence (P35414 1-380): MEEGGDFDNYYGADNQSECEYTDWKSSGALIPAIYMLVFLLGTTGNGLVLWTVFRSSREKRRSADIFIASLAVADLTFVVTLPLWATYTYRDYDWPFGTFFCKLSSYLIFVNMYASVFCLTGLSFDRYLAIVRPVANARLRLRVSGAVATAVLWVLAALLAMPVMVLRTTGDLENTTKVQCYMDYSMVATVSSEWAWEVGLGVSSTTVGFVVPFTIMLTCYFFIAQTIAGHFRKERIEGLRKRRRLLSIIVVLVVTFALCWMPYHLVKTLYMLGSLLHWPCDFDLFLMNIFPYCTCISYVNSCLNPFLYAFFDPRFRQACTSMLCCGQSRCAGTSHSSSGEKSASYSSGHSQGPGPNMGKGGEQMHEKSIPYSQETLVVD
Test: Determination of agonism on the human apelin receptor by a calcium fluorescence assay (FLIPR)
Assay type: cell-based
Conditions: HEK293 cells stably transfected with human apelin receptor and Giaq protein, Fluo-4 calcium fluorescence, read-out: EC50 (APJ agonism)
In short: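 Agonist EC50s come from peak intracellular calcium transients recorded by FLIPR Tetra, scaled to the 1 μM apelin-13 maximum per plate. Test system: HEK293 stably transfected with human apelin receptor plus Giaq, Fluo-4-loaded (4 μM, 1 h, 37 °C, pH 7.4 buffer with probenecid); ≥7 concentrations, triplicates.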

EC50 [nM]	SMILES
6840	CCC(CC)n1c(Cc2cccs2)nc2cc(C(=O)N[C@@H](CC(C)C)C(=O)NC(C)c3ccc(F)cc3)ccc21 (stereo partly drawn) [Example 246, 1-(1-Ethyl-propyl)-2-thiophen-2-ylmethyl-1H-benzoimidazole-5-carboxylic acid {(S)-1-[1-(4-fluoro-phenyl)-ethylcarbamoyl]-3-methyl-butyl}-amide]
7220	CCC(CC)n1c(Cc2cccs2)nc2cc(C(=O)N[C@@H](CC(C)C)C(=O)N[C@@H](C)c3ccc(OC)cc3)ccc21 [Example 247, 1-(1-Ethyl-propyl)-2-thiophen-2-ylmethyl-1H-benzoimidazole-5-carboxylic acid {(S)-1-[(S)-1-(4-methoxy-phenyl)-ethylcarbamoyl]-3-methyl-butyl}-amide]
1800	CCC(CC)n1c(Cc2cccs2)nc2cc(C(=O)N[C@@H](CC(C)C)C(=O)NCCCSC)ccc21 [Example 248, 1-(1-Ethyl-propyl)-2-thiophen-2-ylmethyl-1H-benzoimidazole-5-carboxylic acid [(S)-3-methyl-1-(3-methylsulfanyl-propylcarbamoyl)-butyl]-amide]
407	CCC(CC)n1c(Cc2cccs2)nc2cc(C(=O)N[C@@H](CC(C)C)C(=O)NC3CCOCC3)ccc21 [Example 249, 1-(1-Ethyl-propyl)-2-thiophen-2-ylmethyl-1H-benzoimidazole-5-carboxylic acid [(S)-3-methyl-1-(tetrahydro-pyran-4-ylcarbamoyl)-butyl]-amide]
520	CCC(CC)n1c(Cc2cccs2)nc2cc(C(=O)N[C@@H](CC(C)C)C(=O)NCc3nccs3)ccc21 [Example 250, 1-(1-Ethyl-propyl)-2-thiophen-2-ylmethyl-1H-benzoimidazole-5-carboxylic acid {(S)-3-methyl-1-[(thiazol-2-ylmethyl)-carbamoyl]-butyl}-amide]
2560	CCC(CC)n1c(Cc2cccs2)nc2cc(C(=O)N[C@@H](CC(C)C)C(=O)NCCC(F)(F)F)ccc21 [Example 251, 1-(-Ethyl-propyl)-2-thiophen-2-ylmethyl-1H-benzoimidazole-5-carboxylic acid [(S)-3-methyl-1-(3,3,3-trifluoro-propylcarbamoyl)-butyl]-amide]
6990	CCC(CC)n1c(Cc2cccs2)nc2cc(C(=O)N[C@@H](CC(C)C)C(=O)NCc3cccc(N(C)C)c3)ccc21 [Example 252, 1-(1-Ethyl-propyl)-2-thiophen-2-ylmethyl-1H-benzoimidazole-5-carboxylic acid [(S)-1-(3-dimethylamino-benzylcarbamoyl)-3-methyl-butyl]-amide]
242	CCC(CC)n1c(Cc2cccs2)nc2cc(C(=O)N[C@@H](CC(C)C)C(=O)NCCCCN3CCCC3)ccc21 [Example 253, 1-(1-Ethyl-propyl)-2-thiophen-2-ylmethyl-1H-benzoimidazole-5-carboxylic acid [(S)-3-methyl-1-(4-pyrrolidin-1-yl-butylcarbamoyl)-butyl]-amide]
233	CCC(CC)n1c(Cc2cccs2)nc2cc(C(=O)N[C@@H](CC(C)C)C(=O)NCc3ncco3)ccc21 [Example 254, 1-(1-Ethyl-propyl)-2-thiophen-2-ylmethyl-1H-benzoimidazole-5-carboxylic acid {(S)-3-methyl-1-[(oxazol-2-ylmethyl)-carbamoyl]-butyl}-amide]
6670	CCC(CC)n1c(Cc2cccs2)nc2cc(C(=O)N[C@@H](CC(C)C)C(=O)Nc3ccccc3OC)ccc21 [Example 255, 1-(1-Ethyl-propyl)-2-thiophen-2-ylmethyl-1H-benzoimidazole-5-carboxylic acid [(S)-1-(2-methoxy-phenylcarbamoyl)-3-methyl-butyl]-amide]
5920	CCC(CC)n1c(Cc2cccs2)nc2cc(C(=O)N[C@@H](CC(C)C)C(=O)N(C)Cc3ccccc3OC)ccc21 [Example 256, 1-(1-Ethyl-propyl)-2-thiophen-2-ylmethyl-1H-benzoimidazole-5-carboxylic acid {(S)-1-[(2-methoxy-benzyl)-methyl-carbamoyl]-3-methyl-butyl}-amide]
425	CCC(CC)n1c(Cc2cccs2)nc2cc(C(=O)N[C@@H](CC(C)C)C(=O)NCC3CCCCN3C)ccc21 (stereo partly drawn) [Example 257, 1-(1-Ethyl-propyl)-2-thiophen-2-ylmethyl-1H-benzoimidazole-5-carboxylic acid {(S)-3-methyl-1-[(1-methyl-piperidin-2-ylmethyl)-carbamoyl]-butyl}-amide]
1330	CCC(CC)n1c(Cc2cccs2)nc2cc(C(=O)N[C@@H](CC(C)C)C(=O)NCCSC)ccc21 [Example 258, 1-(1-Ethyl-propyl)-2-thiophen-2-ylmethyl-1H-benzoimidazole-5-carboxylic acid [(S)-3-methyl-1-(2-methylsulfanyl-ethylcarbamoyl)-butyl]-amide]
6650	CCC(CC)n1c(Cc2cccs2)nc2cc(C(=O)N[C@@H](CC(C)C)C(=O)N[C@H]3C[C@@H]3c3ccccc3)ccc21 [Example 259, 1-(1-Ethyl-propyl)-2-thiophen-2-ylmethyl-1H-benzoimidazole-5-carboxylic acid [(S)-3-methyl-1-((1S,2R)-2-phenyl-cyclopropylcarbamoyl)-butyl]-amide]
170	CCC(CC)n1c(Cc2cccs2)nc2cc(C(=O)N[C@@H](CC(C)C)C(=O)N3CC[C@@H](N(C)C)C3)ccc21 [Example 260, 1-(1-Ethyl-propyl)-2-thiophen-2-ylmethyl-1H-benzoimidazole-5-carboxylic acid [(S)-1-((R)-3-dimethylamino-pyrrolidine-1-carbonyl)-3-methyl-butyl]-amide]
269	CCC(CC)n1c(Cc2cccs2)nc2cc(C(=O)N[C@@H](CC(C)C)C(=O)NCCCCN(CC)CC)ccc21 [Example 261, 1-(1-Ethyl-propyl)-2-thiophen-2-ylmethyl-1H-benzoimidazole-5-carboxylic acid [(S)-1-(4-diethylamino-butylcarbamoyl)-3 methyl-butyl]-amide]
4550	CCC(CC)n1c(Cc2cccs2)nc2cc(C(=O)N[C@@H](CC(C)C)C(=O)N[C@@H](C)c3ccccc3F)ccc21 [Example 262, 1-(1-Ethyl-propyl)-2-thiophen-2-ylmethyl-1H-benzoimidazole-5-carboxylic acid {(S)-1-[(S)-1-(2-fluoro-phenyl)-ethylcarbamoyl]-3-methyl-butyl}-amide]
4300	CCC(CC)n1c(Cc2cccs2)nc2cc(C(=O)N[C@@H](CC(C)C)C(=O)N(C)Cc3ccccc3)ccc21 [Example 263, 1-(1-Ethyl-propyl)-2-thiophen-2-ylmethyl-1H-benzoimidazole-5-carboxylic acid [(S)-1-(benzyl-methyl-carbamoyl)-3-methyl-butyl]-amide]
3340	CCC(CC)n1c(Cc2cccs2)nc2cc(C(=O)N[C@@H](CC(C)C)C(=O)N(C)CCc3ccccc3)ccc21 [Example 264, 1-(1-Ethyl-propyl)-2-thiophen-2-ylmethyl-1H-benzoimidazole-5-carboxylic acid [(S)-3-methyl-1-(methyl-phenethyl-carbamoyl)-butyl]-amide]
8660	CCC(CC)n1c(Cc2cccs2)nc2cc(C(=O)N[C@@H](CC(C)C)C(=O)Nc3ccc(OC)cc3)ccc21 [Example 265, 1-(1-Ethyl-propyl)-2-thiophen-2-ylmethyl-1H-benzoimidazole-5-carboxylic acid [(S)-1-(4-methoxy-phenylcarbamoyl)-3-methyl-butyl]-amide]
2720	CCC(CC)n1c(Cc2cccs2)nc2cc(C(=O)N[C@@H](CC(C)C)C(=O)NCc3ccc(N(C)C)cc3)ccc21 [Example 266, 1-(1-Ethyl-propyl)-2-thiophen-2-ylmethyl-1H-benzoimidazole-5-carboxylic acid [(S)-1-(4-dimethylamino-benzylcarbamoyl)-3-methyl-butyl]-amide]
383	CCC(CC)n1c(Cc2cccs2)nc2cc(C(=O)N[C@@H](CC(C)C)C(=O)NCCN(C)C)ccc21 [Example 267, 1-(1-Ethyl-propyl)-2-thiophen-2-ylmethyl-1H-benzoimidazole-5-carboxylic acid [(S)-1-(2-dimethylamino-ethylcarbamoyl)-3-methyl-butyl]-amide]
552	CCC(CC)n1c(Cc2cccs2)nc2cc(C(=O)N[C@@H](CC(C)C)C(=O)NCCOC)ccc21 [Example 268, 1-(1-Ethyl-propyl)-2-thiophen-2-ylmethyl-1H-benzoimidazole-5-carboxylic acid [(S)-1-(2-methoxy-ethylcarbamoyl)-3-methyl-butyl]-amide]
18500	CCC(CC)n1c(Cc2cccs2)nc2cc(C(=O)N[C@@H](CC(C)C)C(=O)N3CCN(c4cccc(C(F)(F)F)c4)CC3)ccc21 [Example 269, 1-(1-Ethyl-propyl)-2-thiophen-2-ylmethyl-1H-benzoimidazole-5-carboxylic acid {(S)-3-methyl-1-[4-(3-trifluoromethyl-phenyl)-piperazine-1-carbonyl]-butyl}-amide]
10800	CCC(CC)n1c(Cc2cccs2)nc2cc(C(=O)N[C@@H](CC(C)C)C(=O)N3CCN(c4ccc(F)cc4)CC3)ccc21 [Example 270, 1-(1-Ethyl-propyl)-2-thiophen-2-ylmethyl-1H-benzoimidazole-5-carboxylic acid {(S)-1-[4-(4-fluoro-phenyl)-piperazine-1-carbonyl]-3-methyl-butyl}-amide]
